Test results from publication PMC8279492, “Quinolinonyl Non-Diketo Acid Derivatives as Inhibitors of HIV-1 Ribonuclease H and Polymerase Functions of Reverse Transcriptase” (Journal of Medicinal Chemistry, 2021).
Read-outs that look alike come from different tables or passages of the source.

How the values were obtained:
HIV-1 IN = HIV-1 IN (Human immunodeficiency virus type 1 group M subtype B, UniProt P12497); assay: biochemical
Procedure: His-tagged NL4-3 IN was expressed from a pET15b plasmid in the E. coli BL21 pLys strain. Recombinant protein was purified as previously described[67] following a batch preparation on Ni-NTA beads (Qiagen, Paris, France).
Both oligonucleotides were purchased from Integrated DNA Technologies, Inc. (Coralville, IA), and the gel was purified in-house. ST reactions were performed by adding molecules or an equivalent volume of 100% dimethyl sulfoxide (DMSO, used as the drug solvent) to a mixture of 20 nM duplex DNA substrate and 400 nM IN in 50 mM MOPS pH 7.2, 7.5 mM MgCl2, and 14 mM 2-mercaptoethanol. Mixtures were incubated at 37 °C for 2 h, and the reaction was quenched by addition of an equal volume of loading buffer [formamide containing 1% sodium dodecyl sulfate (SDS), 0.25% bromophenol blue, and xylene cyanol]. […] Dried gels were visualized using a FLA5000 (Fuji Photo Film, Tokyo, Japan). Densitometric analyses were performed using ImageQuant 5.1 software from GE Healthcare.

[1] = target: T1, HIV-1 RT-associated RNase H activity (Human immunodeficiency virus type 1 group M subtype B, UniProt P03366); assay: biochemical; assay type: biochemical
T1 construct: His-tagged p66/p51 HIV-1 RT group M subtype B; His; made in house; host or cells: Escherichia coli M15
Procedure: (11) and β-thujaplicinol (BTP) used as positive controls.
(§1) His-tagged p66/p51 HIV-1 RT group M subtype B coded in a p6HRT-prot plasmid was expressed in the Escherichia coli strain M15.[65] Heterodimeric RTs were expressed essentially and purified as described.[66]
(§2) The HIV-1 RT-associated RNase H activity was measured as described.[68] Briefly, the reaction was carried out in a black 96-well plate in a total volume of 100 μL. […] Experiments were performed in duplicate and replicated at least two times. Data were analyzed as described.[36]

HIV-1 replication = HIV-1 replication in HeLa-CD4-LTR-β-gal reporter cells; assay type: cell-based
Procedure: (§3) HIV-1 replication was monitored using HeLa-CD4-LTR-β-gal reporter cells as previously described.[69] Briefly, β-galactosidase activity was monitored 24 h post infection using a replication-competent HIV produced in-house (H9-laï coculture) and a serial dilution of molecules or an equivalent volume of DMSO. In parallel, compounds’ toxicity was determined at 24 h in the same cell line using CellTiter 96 AQueous One Solution Cell Proliferation Assay (Promega, France).

HIV-1 RT-RDDP activity = target: T2, HIV-1 RT-RDDP activity (Human immunodeficiency virus type 1 group M subtype B, UniProt P03366); assay: Polymerase assay (RNA-dependent DNA polymerase); assay type: biochemical
T2 construct: His-tagged p66/p51 HIV-1 RT group M subtype B; His; made in house; host or cells: Escherichia coli M15
Procedure: as §1
The HIV-1 RT-associated RNA-dependent DNA polymerase activity was measured as described.[65] Briefly, the reaction was carried out in a black 96-well plate in a total volume of 25 μL. Serial dilutions of compounds were added to the reaction mix containing 60 mM Tris HCl buffer pH 8.1, 8 mM MgCl2, 60 mM KCl, 13 mM DTT, 2.5 mM poly(A)-oligo(dT), and […].

[2] = Compounds' toxicity, CellTiter 96 AQueous One Solution Cell Proliferation Assay; assay type: cell-based; settings: human
Procedure: as §3

K451A HIV-1 RT RNase H = target: T3, K451A HIV-1 RT RNase H (Human immunodeficiency virus type 1 group M subtype B, UniProt P03366, K1050A); assay: RNase H assay, point-mutant K451A RT; assay type: biochemical
T3 construct: Amino acid substitutions were introduced into the p66 HIV-1 RT subunit of a HIV-1 RT; His; made in house; host or cells: Escherichia coli M15
Procedure: (§4) An activity curve was performed for all of the enzymes (Figure S1), and a concentration was chosen in the linear dose-response range to perform the enzymatic-inhibition assays.
(§5) Amino acid substitutions were introduced into the p66 HIV-1 RT subunit of a HIV-1 RT using a QuikChange mutagenesis kit, following the manufacturer’s instructions (Agilent Technologies Inc., Santa Clara, CA).
as §2

K540A HIV-1 RT RNase H = target: T4, K540A HIV-1 RT RNase H (Human immunodeficiency virus type 1 group M subtype B, UniProt P03366, K1139A); assay: RNase H assay, point-mutant K540A RT; assay type: biochemical
T4 construct: Amino acid substitutions were introduced into the p66 HIV-1 RT subunit of a HIV-1 RT; His; made in house; host or cells: Escherichia coli M15
Procedure: as §4, §5, §2

Q475A HIV-1 RT RNase H = target: T5, Q475A HIV-1 RT RNase H (Human immunodeficiency virus type 1 group M subtype B, UniProt P03366, Q1074A); assay: RNase H assay, point-mutant Q475A RT; assay type: biochemical
T5 construct: Amino acid substitutions were introduced into the p66 HIV-1 RT subunit of a HIV-1 RT; His; made in house; host or cells: Escherichia coli M15
Procedure: as §4, §5, §2

W535A HIV-1 RT RNase H = target: T6, W535A HIV-1 RT RNase H (Human immunodeficiency virus type 1 group M subtype B, UniProt P03366, W1134A); assay: RNase H assay, point-mutant W535A RT; assay type: biochemical
T6 construct: Amino acid substitutions were introduced into the p66 HIV-1 RT subunit of a HIV-1 RT; His; made in house; host or cells: Escherichia coli M15
Procedure: as §4, §5, §2

Y501A HIV-1 RT RNase H = target: T7, Y501A HIV-1 RT RNase H (Human immunodeficiency virus type 1 group M subtype B, UniProt P03366, Y1100A); assay: RNase H assay, point-mutant Y501A RT; assay type: biochemical
T7 construct: Amino acid substitutions were introduced into the p66 HIV-1 RT subunit of a HIV-1 RT; His; made in house; host or cells: Escherichia coli M15
Procedure: as §4, §5, §2

N474A HIV-1 RT RNase H = target: T8, N474A HIV-1 RT RNase H (Human immunodeficiency virus type 1 group M subtype B, UniProt P03366, N1073A); assay: RNase H assay, point-mutant N474A RT; assay type: biochemical
T8 construct: Amino acid substitutions were introduced into the p66 HIV-1 RT subunit of a HIV-1 RT; His; made in house; host or cells: Escherichia coli M15
Procedure: as §4, §5, §2

R448A HIV-1 RT RNase H = target: T9, R448A HIV-1 RT RNase H (Human immunodeficiency virus type 1 group M subtype B, UniProt P03366, R1047A); assay: RNase H assay, point-mutant R448A RT; assay type: biochemical
T9 construct: Amino acid substitutions were introduced into the p66 HIV-1 RT subunit of a HIV-1 RT; His; made in house; host or cells: Escherichia coli M15
Procedure: as §4, §5, §2

[3] = anti-RH activity (IC50 ± SD), HIV-1 RT-associated RNase H activity, dose-response curves, no preincubation
[4] = Human immunodeficiency virus 1, HeLa-CD4-LTR-β-gal cells, 24 h post infection, read-out: antiviral activity EC50
[5] = HeLa-CD4-LTR-β-gal cells, CC50 (cytotoxic concentration 50%), 24 h
[6] = wt (RH IC50, uM), supplement CSV, mutagenesis study
[7] = Human immunodeficiency virus 1, 24 h, read-out: antiviral activity EC50

SMILES	IC50 (HIV-1 IN) [µM]	IC50 [1, 3] [µM]	SI (selectivity index = CC50/EC50) (HIV-1 replication)	EC50 (HIV-1 replication; [4]) [µM]	IC50 (HIV-1 RT-RDDP activity) [µM]	CC50 at 24 h [2, 5] [µM]	IC50 (K451A HIV-1 RT RNase H) [µM]	IC50 (K540A HIV-1 RT RNase H) [µM]	IC50 (Q475A HIV-1 RT RNase H) [µM]	IC50 [1, 6] [µM]	EC50 (HIV-1 replication; [7]) [µM]	IC50 (W535A HIV-1 RT RNase H) [µM]	IC50 (Y501A HIV-1 RT RNase H) [µM]	IC50 (N474A HIV-1 RT RNase H) [µM]	IC50 (R448A HIV-1 RT RNase H) [µM]	also measured
O=C(O)c1cn(Cc2ccc(F)cc2)c2ccc(OCc3ccccc3)cc2c1=O [4l, 6-(Benzyloxy)-1-(4-fluorobenzyl)-4-oxo-1,4-dihydroquinoline-3-carboxylic Acid]	0.41 ± 0.03	34 ± 0.1	>8.6	11.7 ± 2.5	38.5 ± 7.1	> 100										EC50 (HIV-1 replication; Human immunodeficiency virus 1, supplement CSV, read-out: EC50): 11.7 ± 2.15 µM
O=C(/C=C/c1ccc2c(c1)c(=O)c(C(=O)O)cn2Cc1ccc(F)cc1)c1ccccc1 [4k, (E)-1-(4-Fluorobenzyl)-4-oxo-6-(3-oxo-3-phenylprop-1-en-1-yl)-1,4-dihydroquinoline-3 carboxylic Acid]	3.38 ± 0.42	5.9 ± 0.6	3.1	5.4 ± 3.1	> 100	17 ± 4										
O=C(O)c1cn(Cc2ccc(F)cc2)c2ccc(OCc3cccc4ccccc34)cc2c1=O [4o, 1-(4-Fluorobenzyl)-6-(naphthalen-1-ylmethoxy)-4-oxo-1,4-dihydroquinoline-3-carboxylic Acid]	> 100	1.51 ± 0.21			11.4 ± 2.6	51 ± 11	11.8 ± 1.2	31.6 ± 1.2	> 100	5.2 ± 1.1	8.4 ± 0.7	> 100	> 100	85.8 ± 1.6	19.6 ± 1.24	
CCOC(=O)c1cn(Cc2ccc(F)cc2)c2ccc(OCc3ccc(Cl)c(Cl)c3)cc2c1=O [5n, Ethyl 6-((3,4-Dichlorobenzyl)oxy)-1-(4-fluorobenzyl)-4-oxo-1,4-dihydroquinoline-3-carboxylate]	9.45 ± 0.55	37.2 ± 7.6	1.4	14.6 ± 3.1	24.1 ± 8.6	20.6 ± 4.4										IC50 ([1]; RH IC50 (uM), supplement CSV): 37.2 ± 7.58 µM
O=C(O)c1cn(Cc2ccc(F)cc2)c2ccc(OCc3cccc(Cl)c3Cl)cc2c1=O [4m, 6-((2,3-Dichlorobenzyl)oxy)-1-(4-fluorobenzyl)-4-oxo-1,4-dihydroquinoline-3-carboxylic Acid]	> 100	8.19 ± 0.05	>15	13.3 ± 4.5	5.6 ± 0.6	> 200										CC50 at 24 h ([2]; HeLa-CD4-LTR-β-gal cells, supplement CSV, read-out: CC50): > 50 µM
O=C(O)c1cn(Cc2ccc(F)cc2)c2ccc(OCc3ccc(OCc4ccccc4)cc3)cc2c1=O [4t, 6-((4-(Benzyloxy)benzyl)oxy)-1-(4-fluorobenzyl)-4-oxo-1,4-dihydroquinoline-3-carboxylic Acid]	> 100	7.48 ± 0.28	>57.8		2.2 ± 0.1		2.9 ± 1.3	2 ± 1.2	15.6 ± 1.6	1.9 ± 0.4	1.73 ± 0.47	> 100	> 100	1.16 ± 1.41	2.2 ± 1.3	Fold increase in IC50 compared to wt RT, W535A (W535A HIV-1 RT RNase H): > 52.4 fold; W535A (Fold) (W535A HIV-1 RT RNase H; supplement CSV, vs wt): >52.4; CC50 at 24 h ([2]; HeLa-CD4-LTR-β-gal reporter cells, CC50 (cytotoxic concentration 50%), HeLa-CD4-LTR-β-gal cells, 24 h): > 100 µM; CC50 at 24 h ([2]; HeLa-CD4-LTR-β-gal reporter cells, supplement CSV, read-out: CC50): > 16 µM
